Structures can show the parent of a compound that is named as a salt.
What follows are compounds tested against T1, AM2 (Influenza A virus, UniProt P0DOF5) (assay: cell-based). Details: Oocytes; 100 μM, 2 min; mean ± SE; read-out: AM2 wt % of inhibition by 100 μM 2 min.
T1 construct: expressed in transfected cells
T1 sequence (P0DOF5 whole entry): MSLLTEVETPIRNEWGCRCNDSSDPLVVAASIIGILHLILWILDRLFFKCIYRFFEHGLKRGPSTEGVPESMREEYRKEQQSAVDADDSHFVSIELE

Compound	inhibition at 100 µM
CC(N)C12CC3CC(CC(C3)C1)C2 (stereo not drawn) [Rimantadine, reference compound]	91.2 ± 0.9%
NC12CC3CC(CC(C3)C1)C2 [Amantadine, reference compound]	90.8 ± 2.5%
Cl.NC1CCC2(CC1)C1CC3CC(C1)CC2C3 (stereo not drawn) [Compound S15, (1r, 3r,5r,7r)-spiro[adamantane-2,1′-cyclohexan]-4′-aminium chloride]	89.1 ± 1.3%

Same assay, conditions: Table 2

Compound	IC50
OC1(C(F)(F)F)C2CC3CC(C2)CC1C3 (stereo not drawn) [Compound S8]	13.8 µM
O=C1C2CC3CC(C2)CC1C3 [Compound S13]	28.8 µM
NC1(C(F)(F)F)C2CC3CC(C2)CC1C3 (stereo not drawn) [Compound S6]	10.1 µM

Same assay, conditions: concentration not given; Table 2

Compound	AM2 % inhibition at μM
NS(=O)(=O)NC1C2CC3CC(C2)CC1C3 (stereo not drawn) [Compound S7]	81.6%
OC1(C(F)(F)F)C2CC3CC(C2)CC1C3 (stereo not drawn) [Compound S8]	82.9%
CC1(O)C2CC3CC(C2)CC1C3 (stereo not drawn) [Compound S4]	85.8%
O=[N+]([O-])C1C2CC3CC(C2)CC1C3 (stereo not drawn) [Compound S3]	85.6%
O=C1C2CC3CC(C2)CC1C3 [Compound S13]	69.6%
Cl.NC1C[C@@H]2C[C@@H]3CC1[C@H](C2)C3 (stereo partly drawn) [Compound S1, (2S,3aS,5R)-octahydro-1H-2,5-methanoinden-7-aminium chloride]	94.2%
Cl.NC12CC3CCC(CC(C3)C1)C2 [Compound S2, tricyclo[4.3.1.13,8]undecan-1-aminium chloride]	81.3%
Cl.NC12CCC3CC(CC(C3)C1)C2 [Compound S12]	92%
CC1(N)C2CC3CC(C2)CC1C3 (stereo not drawn) [Compound S5]	65.0%
NC1(C(F)(F)F)C2CC3CC(C2)CC1C3 (stereo not drawn) [Compound S6]	86.3%
O=[N+]([O-])C12CC3CC(CC(C3)C1)C2 [Compound S9]	87.2%

Same assay, conditions: read-out: AM2 % inhibition at 100 uM; 100 uM; Table 1

Compound	inhibition at 100 µM
N=C(N)C12CC3CC(CC(C3)C1)C2 [Compound 44, Adamantane amidine hydrochloride]	70%
N=C(NO)C12CC3CC(CC(C3)C1)C2 [Compound 46, N-hydroxyadamantanecarboximidamide]	72.3%
Cc1nc[nH]c1/C=N/OC12CC3CC(CC(C3)C1)C2 [Compound 43, 5-Methyl-3H-imidazole-4-carbaldehyde O-adamantan-1-yl-oxime]	81%
O=CC12CC3CC(CC(C3)C1)C2 [Compound 49, 1-adamantanecarboaldehyde]	65.1%
NC12CC3CC(C1)CC(O)(C3)C2 [Compound 38]	87%
O=C1C2CC3CC(C2)CC1C3 [Compound 50]	69.6%
OC1(C(F)(F)F)C2CC3CC(C2)CC1C3 (stereo not drawn) [Compound 53, 2-trifluoromethyl-2-adamantol]	82.9%
N=C(N)NC12CC3CC(CC(C3)C1)C2 [Compound 39, 1-(adamantyl)guanidine]	97%
Cl.Cl.N=C(N)NC(=N)NC12CC3CC(CC(C3)C1)C2 [Compound 41]	70%
O=[N+]([O-])C12CC3CC(CC(C3)C1)C2 [Compound 54, 1-nitroadamantane]	87.2%
NC(=O)C12CC3CC(CC(C3)C1)C2 [Compound 48]	74.9%
NOC12CC3CC(CC(C3)C1)C2 [Compound 42, O-adamantylhydroxylamine]	87%
O=C1C2CC3CC1CC(C2)C3=O [Compound 52, 2,6-diadamantone]	59.1%
CC(NC(=N)N)C12CC3CC(CC(C3)C1)C2 (stereo not drawn) [Compound 40]	94%
NC1CSC2(SC1)C1CC3CC(C1)CC2C3 (stereo not drawn) [Compound 45]	64%
C1NC2CC3CC1CC(C3)C2.Cl [Compound 47, 4-Azatricyclo[4.3.1.1^3,8]undecan hydrochloride]	83.8%

Source: patent publication US20120270917A1 (The Trustees of the University of Pennsylvania, priority 2009, published 2012)
